In patent US20050153894A1, “p21 peptides” (Cyclacel Limited, priority 1999, published 2005):
Entries after “also recorded” stand apart in the source; their conditions may differ. Read-outs that look alike come from different tables or passages of the source. Blank lines part the entries; values can stand above or below the compound they belong to. Square brackets hold non-standard residues; d marks the D form. βLeu = beta-Leu

Experiments:
[1] = molecular target: CDK2/cyclin A (Homo sapiens, UniProt P20248); experiment: Functional kinase assay, CDK2/cyclin A phosphorylation of GST-pRb(773-928); type: biochemical; details: read-out: Inhibitory activity IC50 ± SD, Functional kinase assay
Procedure: Reactions were stopped on ice, followed by addition of 5 μL/well of glutathione-Sepharose 4B (Amersham Biosciences) and further incubation with shaking for 30 min at room temperature. The mixtures were then filtered on Whatman GF/C filterplates and washed 4 times with 0.2 mL/well of 50 mM HEPES containing 1 mM ATP. Plates were dried, sealed, and scintillant (Microscint 40) was added. Incorporated radioactivity was measured using a scintillation counter (TopCount, Packard Instruments, Pangbourne, Berks, UK). Half-maximal inhibition (IC50) was calculated from dose-response curves.

[2] = molecular target: T1, CDK1/Cyclin B (Homo sapiens, UniProt P14635); experiment: CDK1/Cyclin B kinase assay, phosphorylation of GST-Rb; type: biochemical; details: CDK1-Cyclin B induced phosphorylation of GST-Rb
T1 construct: 6xHis; made in house; host or cells: Sf9 insect cells (baculovirus co-expression)
Procedure: The phosphorylation reaction mixture (total volume 40 μl) consisted of 50 mM HEPES pH 7.4, 20 mM MgCl2, 5 mM EGTA, 2 mM DTT, 20 mM β-glycerophosphate, 2 mM NaF, 1 mM Na3VO4, Protease Inhibitors Cocktail (Sigma, see above), BSA 0.5 mg/ml, 1 μg purified enzyme complex, 10 μl of GST-Rb-Sepharose beads, 100 μM ATP, 0.2 μCi ^32P-ATP. The reaction was carried out for 30 min at 30° C. at constant shaking. At the end of this period 100 μl of 50 mM HEPES, pH 7.4 and 1 mM ATP were added to each well and the total volume was transferred onto GFC filtered plate. The plate was washed 5 times with 200 μl of 50 mM HEPES, pH 7.4 and 1 mM ATP. To each well were added 50 μl scintillant liquid and the radioactivity of the samples was measured on Scintilation counter (Topcount, HP). The IC50 values of different peptides were calculated using GraFit software.

[3] = molecular target: T2, Cyclin D1 (Homo sapiens, UniProt P24385); experiment: Pull-down with immobilised biotinylated peptide: cyclin D1; type: binding; details: biotinylated peptide on streptavidin-agarose beads
T2 construct: made in house
Text: (§1) A biotinylated version of p21(149-159) was used in “pull-down” experiments with the purified CDK sub-units, CDK2, CDK4, cyclin A, cyclin D1, and with the complexes of CDK2/cyclin A or CDK4/cyclin D1 kinases, in order to determine the binding partner of the peptide. The biotinylated peptide was pre-immobilised on streptavidin-agarose beads. […] Both CDK2 and CDK4 were “pulled down”, however, with biotinylated p21(149-159)-streptavidin-agarose beads when they were in a complex with cyclin A or cyclin D1, respectively. Similar results were obtained with cyclin E and CDK2/cyclin E complex. […] Such a method may be utilised either alone or together with a candidate substance to identify cyclin binding moities and/or inhibitors of cyclin-CDK interaction.

[4] = molecular target: CDK2 (Homo sapiens, UniProt P24941); experiment: Pull-down with immobilised biotinylated peptide: CDK2; type: binding; details: in the absence of cyclin partner
Text: as §1

[5] = molecular target: T3, CDK4 (Homo sapiens, UniProt P11802); experiment: Pull-down with immobilised biotinylated peptide: CDK4; type: binding; details: in the absence of cyclin partner
T3 construct: 6xHis; made in house; host or cells: Sf9 insect cells (baculovirus)
Text: as §1

[6] = molecular target: Cyclin A (Homo sapiens, UniProt P20248); experiment: Pull-down with immobilised biotinylated peptide: cyclin A; type: binding; details: biotinylated peptide on streptavidin-agarose beads
Text: as §1

[7] = molecular target: T4, CDK4/Cyclin D1 (Homo sapiens, UniProt P24385); details: WO97/42222 and Ball et al., cited from earlier work
T4 construct: made in house; host or cells: CDK4: Sf9 insect cells (baculovirus)

[8] = molecular target: T4, CDK4/Cyclin D1; experiment: CDK4/Cyclin D1 kinase assay, phosphorylation of GST-Rb; type: biochemical
[9] = molecular target: T5, CDK2/Cyclin E (Homo sapiens, UniProt P24864); experiment: CDK2/Cyclin E kinase assay, phosphorylation of GST-Rb; type: biochemical
T5 construct: 6xHis; made in house; host or cells: Sf9 insect cells (baculovirus co-expression)

[10] = molecular target: T5, CDK2/Cyclin E; experiment: CDK2/Cyclin E kinase assay, phosphorylation of Histone 1; type: biochemical
Procedure: (§2) Histone 1 phosphorylation induced by CDK2/Cyclin E and CDK1/Cyclin B was measured using similar method. The concentration of Histone 1 in the kinase reaction was 1 mg/ml (unless different stated).

[11] = molecular target: cyclin B (Homo sapiens, UniProt P14635); experiment: Pull-down with immobilised peptide: cyclin B; type: binding
[12] = molecular target: T1, CDK1/Cyclin B; experiment: CDK1/Cyclin B kinase assay, phosphorylation of Histone 1; type: biochemical
Procedure: as §2

[13] = molecular target: T5, CDK2/Cyclin E; details: GST-Rb phosphorylation; Ball et al.; cited from earlier work
[14] = GST-pRb substrate, [ATP] = 100 μM

T4 sequence (P24385 whole entry): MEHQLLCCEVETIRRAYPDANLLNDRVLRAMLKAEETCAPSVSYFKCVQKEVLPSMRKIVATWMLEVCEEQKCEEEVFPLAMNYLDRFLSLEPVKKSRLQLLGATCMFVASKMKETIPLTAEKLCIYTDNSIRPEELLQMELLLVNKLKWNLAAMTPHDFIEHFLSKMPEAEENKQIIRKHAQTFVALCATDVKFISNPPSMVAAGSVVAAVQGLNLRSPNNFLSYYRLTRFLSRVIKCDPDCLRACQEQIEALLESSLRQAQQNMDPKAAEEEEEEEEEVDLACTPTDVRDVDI
T4 sequence (P11802 whole entry partner): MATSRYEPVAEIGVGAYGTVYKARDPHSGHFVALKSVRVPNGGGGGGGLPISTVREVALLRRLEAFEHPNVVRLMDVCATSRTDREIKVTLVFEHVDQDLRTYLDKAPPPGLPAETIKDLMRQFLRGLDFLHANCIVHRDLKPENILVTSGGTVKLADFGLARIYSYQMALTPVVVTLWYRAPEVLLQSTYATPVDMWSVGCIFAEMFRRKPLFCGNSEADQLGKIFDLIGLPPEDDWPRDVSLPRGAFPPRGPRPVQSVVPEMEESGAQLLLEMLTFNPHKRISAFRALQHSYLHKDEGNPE
T1 sequence (P14635 whole entry): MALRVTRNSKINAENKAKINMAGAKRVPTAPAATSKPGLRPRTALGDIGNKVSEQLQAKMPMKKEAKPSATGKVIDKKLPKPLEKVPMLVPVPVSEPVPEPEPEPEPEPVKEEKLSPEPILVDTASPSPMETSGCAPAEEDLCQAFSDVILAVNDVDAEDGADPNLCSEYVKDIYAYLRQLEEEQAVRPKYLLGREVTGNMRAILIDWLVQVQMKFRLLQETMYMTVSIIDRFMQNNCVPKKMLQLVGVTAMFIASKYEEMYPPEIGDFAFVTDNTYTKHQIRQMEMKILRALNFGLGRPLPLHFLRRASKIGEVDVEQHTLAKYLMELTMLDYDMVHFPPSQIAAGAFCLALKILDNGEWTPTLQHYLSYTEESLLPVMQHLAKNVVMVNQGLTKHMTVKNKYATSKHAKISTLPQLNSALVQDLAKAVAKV
T1 sequence (P06493 whole entry partner): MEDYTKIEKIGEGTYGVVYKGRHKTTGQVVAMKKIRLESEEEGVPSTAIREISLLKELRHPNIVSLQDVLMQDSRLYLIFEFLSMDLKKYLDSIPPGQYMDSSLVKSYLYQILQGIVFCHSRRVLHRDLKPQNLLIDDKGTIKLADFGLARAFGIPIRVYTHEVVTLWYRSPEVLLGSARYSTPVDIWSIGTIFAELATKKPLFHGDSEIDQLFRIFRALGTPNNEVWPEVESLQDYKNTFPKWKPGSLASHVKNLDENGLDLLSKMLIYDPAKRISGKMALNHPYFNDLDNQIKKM
T2 sequence (P24385 whole entry): as the sequence (P24385 whole entry) above
Cyclin A, sequence (P20248 whole entry): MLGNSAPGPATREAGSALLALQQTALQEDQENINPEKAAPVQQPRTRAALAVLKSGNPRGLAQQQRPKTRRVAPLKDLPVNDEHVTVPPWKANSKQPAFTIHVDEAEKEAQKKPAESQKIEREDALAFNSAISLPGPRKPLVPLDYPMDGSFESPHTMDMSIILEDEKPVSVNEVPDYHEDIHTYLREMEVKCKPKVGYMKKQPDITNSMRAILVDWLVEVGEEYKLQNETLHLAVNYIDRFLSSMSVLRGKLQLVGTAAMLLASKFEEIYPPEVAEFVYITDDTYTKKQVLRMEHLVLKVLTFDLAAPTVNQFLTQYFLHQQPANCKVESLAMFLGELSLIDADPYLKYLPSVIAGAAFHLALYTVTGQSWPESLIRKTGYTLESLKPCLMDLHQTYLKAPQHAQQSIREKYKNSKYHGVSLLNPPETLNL
cyclin B, sequence (P14635 whole entry): as the sequence (P14635 whole entry) above
T3 sequence (P11802 whole entry, species assumed): as the sequence (P11802 whole entry partner) above

Compound: CC(=O)N[C@@H](CC(C)C)C(=O)N[C@@H](CC(N)=O)C(=O)N[C@@H](Cc1ccc(F)cc1)C(N)=O [VI.42]
IC50 [1]: 139 ± 10 µM

Compound: H-DFYHSKRRLIF-NH2 [p21(149-159)]
IC50 [2]: > 200 µM
binding to cyclin D1 in pull-down [3]: bound
binding to CDK2 in pull-down [4]: failed to interact
binding to CDK4 in pull-down [5]: failed to interact
binding to cyclin A in pull-down [6]: bound

Compound: VI.38 (Ac-RR[βLeu]F-NH2)
IC50 ([1]; recombinant human CDK2/cyclin A, GST-pRb(773-928) substrate, 30 min at 30° C): 216 µM

Compound: p21(141-160): 20-residue peptide derived from the C-terminus of p21^WAF1 (residues 141-160), Ball et al.
IC50 ([7]; Asp149Ala effect said not reproducible, read-out: IC50, cyclin D1-CDK4 inhibition): 0.1 µM
activity against cyclinD1/CDK4 relative to cyclinE/CDK2 [13]: 40 times

Further lines, with some results ahead:

Kinase Inhibition Cyclin D1/CDK4 % Inhibition [8, 14]: 20%
Kinase Inhibition Cyclin E/CDK2 % Inhibition [9, 14]: 60%
Kinase Inhibition Cyclin E/CDK2 IC30 [9, 14]: >200 µM
Compound: KRRLIFSK [reference compound]
concentration for inhibitory activity against cyclin D1-CDK4 relative to parent p21(141-160) [7]: 1000 times

IC50 [2]: > 200 µM
inhibition of CDK4/Cyclin D1 phosphorylation of GST-Rb, in words [8]: very similar activity
inhibition at 100 µM [8, 14]: 70%
inhibition of CDK2/Cyclin E phosphorylation of Histone 1, in words ([10]; listed as p21 (149-160)): do not inhibit
inhibition of CDK2/Cyclin E phosphorylation of GST-Rb, in words [9]: specifically inhibit
pull-down of cyclin B (monomer or complex with CDK1) [11]: unable to precipitate
inhibition of CDK1/cyclin B phosphorylation of histone H1, in words [12]: did not have any significant effect
IC50 ([12]; CDK1-Cyclin B induced phosphorylation of Histone 1): > 200 µM
Compound: H-DFYHSKRRLIFS-NH2 [p21(149-160)]
inhibition of CDK2/Cyclin E phosphorylation of Histone 1, in words [10]: completely inactive; also recorded: did not inhibit
